Like-named read-outs stand apart in the source and are kept apart here.
Legend:
WSU-NHL cells [1] = test: pretreatment with VPA and prednisolone before CHOP, viability by trypan blue exclusion; type: cell-based; conditions: pretreatment with VPA alone before CHOP
Description: Pretreatment with VPA before CHOP could theoretically increase the response to CHOP therapy through induction of DNA damage. However, VPA treatment could result in symptoms such as somnolence in a patient. These symptoms could be counteracted by simultaneous treatment with prednisolone. […] All tests were two-sided.

SU-DHL-8 cells [2] = test: Rituximab antibody-dependent cellular cytotoxicity (ADCC) with NK cells, dead target cells PKH26/7-AAD double positive; type: cell-based
Method: (§1) To estimate the impact of VPA on the antibody-dependent-cellular cytotoxicity (ADCC) induced by the CD20 antibody Rituximab. […]
(§2) NK cells were added as an effector to target cell ratio of 10:1, thereafter the cells were incubated for an additional 20 hours. Dead target cells were identified as double positive for PKH26 and 7-AAD and used as readout of the assay.

WSU-NHL cells [3] = test: as above; type: cell-based
Method: as §1, §2

histone H3 = test: acetylation of histone H3 by western blot analysis in DLBCL cell line model; type: cell-based; conditions: valproic acid at pharmacological concentrations
SU-DHL-8 = test: cell viability time course by trypan blue exclusion, 0.5 mM or 1.5 mM VPA alone or with CHOP; type: cell-based; conditions: Homo sapiens, read-out: Viability (% of control cells day 1); for viability at 500 µM: SU-DHL-8, 0.5 mM VPA; for viability at 1500 µM: SU-DHL-8, 1.5 mM VPA
Method: (§3) The DLBCL cell lines SU-DHL-8 (Table 2A) and WSU-NHL (Table 2B) were treated for 72 hours with 0.5 mM or 1.5 mM VPA alone, or in combination with CHOP. The concentration of 0.5 mM VPA was chosen because it is a normal serum concentration during continuous VPA treatment in patients with epilepsy. The concentration of 1.5 mM VPA was chosen because it is the maximal tolerated serum concentration during 5 day VPA treatment for compassionate use as noted by the inventor.
(§4) The cell viability was assessed after 0 (Day 1), 24 (Day 2), 48 (Day 3) and 72 (Day 4) hours respectively, by trypan blue exclusion and normalised to untreated control cells. Data are presented as mean, n=3.
(§5) Treatment effects on viability were tested against the effects of CHOP treatment alone. […] All tests were two-sided. Effects were considered statistically significant at P<0.05 (*) and P<0.01 (**).
(§6) Viability (% of control cells day 1) are shown in Table 2A (SU-DHL-8) and Table 2B (WSU-NHL, n=3) respectively.

WSU-NHL = test: as above; type: cell-based; conditions: Homo sapiens, read-out: Viability (% of control cells day 1); for viability at 500 µM: 0.5 mM VPA; for viability at 1500 µM: 1.5 mM VPA
Method: as §3, §4, §5, §6

[4] = continuous VPA treatment in patients with epilepsy; cited from earlier work
[5] = VPA serum concentration in patients; type: in vivo, human; conditions: 5 day VPA treatment for compassionate use as noted by the inventor
Method: as §3

SU-DHL-8 cells [6] = test: cell viability by trypan blue exclusion after 72 hours, VPA alone or in combination with CHOP; type: cell-based; conditions: Homo sapiens, SU-DHL-8, 72 h; for viability at 100 µM: 0.1 mM VPA; for viability at 2000 µM: 2 mM VPA; for viability at 10000 µM: 10 mM VPA
Method: (§7) The DLBCL cell lines WSU-NHL, Karpas-422, ULA, SU-DHL-5 and SU-DHL-8 cells were treated for 72 hours with three different concentrations (0.1 mM, 2 mM and 10 mM respectively) of valproic acid (VPA) alone, or in combination with CHOP. The CHOP regimen used in all examples consists of 10 μM cyclophosphamide monohydrate, 20 nM doxorubicin hydrochloride, 2 nM vincristine sulfate and 20 μg/ml prednisolone. (Ageberg, Rydström, Lindén, Linderoth, Jerkeman and Drott; Exp Cell Research; May 1; 317(8):1179-91).
(§8) The cell viability was assessed after 72 hours by trypan blue exclusion and normalised to untreated control cells at day 0 (seeding). Data are presented as mean±SEM, n=3.

WSU-NHL cells [7] = test: as above; type: cell-based; conditions: Homo sapiens; for viability at 100 µM: 0.1 mM VPA; for viability at 2000 µM: 2 mM VPA; for viability at 10000 µM: 10 mM VPA
Method: as §7, §8

Karpas-422 cells = test: as above; type: cell-based; conditions: Homo sapiens, KARPAS-422, 72 h; for viability at 100 µM: 0.1 mM VPA; for viability at 2000 µM: 2 mM VPA; for viability at 10000 µM: 10 mM VPA
Method: as §7, §8

SU-DHL-5 cells = test: as above; type: cell-based; conditions: Homo sapiens, SU-DHL-5, 72 h; for viability at 100 µM: 0.1 mM VPA; for viability at 2000 µM: 2 mM VPA; for viability at 10000 µM: 10 mM VPA
Method: as §7, §8

ULA cells = test: as above; type: cell-based; conditions: for viability at 100 µM: 0.1 mM VPA; for viability at 2000 µM: 2 mM VPA; for viability at 10000 µM: 10 mM VPA
Method: as §7, §8

[8] = 1.5 mM VPA for 24 hours before rituximab
[9] = Rituximab 0 μg/ml, +NK Cells + 1.5 mM VPA

## CCCC(CCC)C(=O)O [VPA, valproic acid]
WSU-NHL cells [1]
  sensitization to CHOP-treatment: sensitizes lymphoma cell lines to CHOP-treatment
SU-DHL-8 cells [2]; [8]
  effect on Rituximab induced ADCC: does not affect Rituximab induced ADCC
SU-DHL-8 cells [2]; [9]
  percentage of dead cells, Mean: 34%
WSU-NHL cells [3]; [8]
  effect on Rituximab induced ADCC: does not affect Rituximab induced ADCC
WSU-NHL cells [3]; [9]
  percentage of dead cells, Mean: 27%
Histone H3
  acetylation of histone H3: increase in acetylation of histone H3
SU-DHL-8; Day 1 (0 hours)
  viability at 500 µM: 100%
  viability at 1500 µM: 100%
SU-DHL-8; Day 2 (24 hours)
  viability at 500 µM: 102%
  viability at 1500 µM: 97%
SU-DHL-8; Day 3 (48 hours)
  viability at 500 µM: 101%
  viability at 1500 µM: 64%
SU-DHL-8; Day 4 (72 hours)
  viability at 500 µM: 94%
  viability at 1500 µM: 59%
WSU-NHL; Day 1 (0 hours)
  viability at 500 µM: 100%
  viability at 1500 µM: 100%
WSU-NHL; Day 2 (24 hours)
  viability at 500 µM: 97%
  viability at 1500 µM: 95%
WSU-NHL; Day 3 (48 hours)
  viability at 500 µM: 99%
  viability at 1500 µM: 68%
WSU-NHL; Day 4 (72 hours)
  viability at 500 µM: 98%
  viability at 1500 µM: 36%
[4]
  normal serum concentration: 0.5 mM
[5]
  maximal tolerated serum concentration: 1.5 mM
SU-DHL-8 cells [6]; +CHOP
  viability at 100 µM: 55%
  viability at 2000 µM: 0%
  viability at 10000 µM: 0%
SU-DHL-8 cells [6]; −CHOP
  viability at 100 µM: 105%
  viability at 2000 µM: 67%
  viability at 10000 µM: 0%
WSU-NHL cells [7]; +CHOP
  viability at 100 µM: 63%
  viability at 2000 µM: 6%
  viability at 10000 µM: 0%
WSU-NHL cells [7]; −CHOP
  viability at 100 µM: 99%
  viability at 2000 µM: 29%
  viability at 10000 µM: 1%
Karpas-422 cells; +CHOP
  viability at 100 µM: 80%
  viability at 2000 µM: 67%
  viability at 10000 µM: 21%
Karpas-422 cells; −CHOP
  viability at 100 µM: 100%
  viability at 2000 µM: 102%
  viability at 10000 µM: 21%
SU-DHL-5 cells; +CHOP
  viability at 100 µM: 26%
  viability at 2000 µM: 1%
  viability at 10000 µM: 0%
SU-DHL-5 cells; −CHOP
  viability at 100 µM: 124%
  viability at 2000 µM: 53%
  viability at 10000 µM: 0%
ULA cells; +CHOP
  viability at 100 µM: 73%
  viability at 2000 µM: 52%
  viability at 10000 µM: 42%
ULA cells; −CHOP
  viability at 100 µM: 105%
  viability at 2000 µM: 52%
  viability at 10000 µM: 50%
